Experimental data as given in patent US6673549B1, “Genes expressed in C3A liver cell cultures treated with steroids” (Incyte Corporation, priority 2000, dated 2004).

Test system: human C3A liver cells
Assay: Microarray differential gene expression in human C3A liver cell cultures treated with steroids
Type: cell-based
Source text: Incyte clones represent template sequences derived from the LWESEQ GOLD assembled human sequence database (Incyte Genomics). In cases where more than one clone was available for a particular template, the 5′-most clone in the template was used on the microarray. The HUMAN GENOME GEM series 1-4 microarrays (Incyte Genomics) contain 28,626 array elements which represent 10,068 annotated clusters and 18,558 unannotated clusters. For the UNIGEM series microarrays (Incyte Genomics), Incyte clones were mapped to non-redundant Unigene clusters (Unigene database (build 46), NCBI; Shuler (1997) J Mol Med 75:694-698), and the 5′ clone with the strongest BLAST alignment (at least 90% identity and 100 bp overlap) was chosen, verified, and used in the construction of the microarray. The UNIGEM V microarray (Incyte Genomics) contains 7075 array elements which represent 4610 annotated genes and 2,184 unannotated clusters.
To construct microarrays, cDNAs were amplified from bacterial cells using primers complementary to vector sequences flanking the cDNA insert. […] Amplified cDNAs were then purified using […]-400 columns (APB). Purified cDNAs were immobilized on polymer-coated glass slides. Glass microscope slides (Corning, Corning N.Y.) were cleaned by ultrasound in 0.1% SDS and acetone, with extensive distilled water washes between and after treatments. Glass slides were etched in 4% hydrofluoric acid (VWR Scientific Products, West Chester Pa.), washed thoroughly in distilled water, and coated with 0.05% aminopropyl silane (Sigma Aldrich) in 95% ethanol. Coated slides were cured in a 110° C. oven. cDNAs were applied to the coated glass substrate using a procedure described in U.S. Pat. No. 5,807,522. One microliter of the cDNA at an average concentration of 100 ng/μl was loaded into the open capillary printing element by a high-speed robotic apparatus which then deposited about 5 nl of cDNA per slide.
Microarrays were UV-crosslinked using a […] UV-crosslinker (Stratagene), and then washed at room temperature once in 0.2% SDS and three times in distilled water. Non-specific binding sites were blocked by incubation of microarrays in 0.2% casein in phosphate buffered saline (Tropix, Bedford Mich.) for 30 minutes at 60° C. followed by washes in 0.2% SDS and distilled water as before.
In all cases, mRNA from untreated early confluent C3A cells were prepared in parallel as described below.
Cells were harvested and lysed in 1 ml of TRIZOL reagent (5×10^6 cells/ml; Life Technologies). Lysates were vortexed thoroughly, incubated at room temperature for 2-3 minutes, and extracted with 0.5 ml chloroform. The extract was mixed, incubated at room temperature for 5 minutes, and centrifuged at 15,000 rpm for 15 minutes at 4° C. The aqueous layer was collected, and an equal volume of isopropanol was added. Samples were mixed, incubated at room temperature for 10 minutes, and centrifuged at 15,000 rpm for 20 minutes at 4° C. The supernatant was removed, and the RNA pellet was washed with 1 ml of 70% ethanol, centrifuged at 15,000 rpm at 4° C., and resuspended in RNAse-free water. The concentration of the RNA was determined by measuring the optical density at 260 nm.
Poly(A) RNA was prepared using an OLIGOTEX mRNA kit (Qiagen) with the following modifications: OLIGOTEX beads were washed in tubes instead of on spin columns, resuspended in elution buffer, and then loaded onto spin columns to recover mRNA. To obtain maximum yield, the mRNA was eluted twice.
Each poly(A) RNA sample was reverse transcribed using MMLV reverse-transcriptase, 0.05 pg/μl oligo-d(T) primer (21mer), 1× first strand buffer, 0.03 units/ul RNAse inhibitor, 500 uM dATP, 500 uM dGTP, 500 uM dTTP, 40 uM dCTP, and 40 uM either dCTP-Cy3 or dCTP-Cy5 (APB).

C[C@@H]1C[C@H]2[C@@H]3CCC4=CC(=O)C=C[C@]4(C)[C@@]3(F)[C@@H](O)C[C@]2(C)[C@@]1(O)C(=O)CO [dexamethasone]
Ave DE [log2] (C3A treated with steroid) (Clone ID 167081): −1.10 log2
Ave DE [log2] (C3A treated with steroid) (Clone ID 220378): 0.39 log2
Ave DE [log2] (C3A treated with steroid) (Clone ID 380006): −0.98 log2
Ave DE [log2] (C3A treated with steroid) (Clone ID 419492): 1.08 log2
Ave DE [log2] (C3A treated with steroid) (Clone ID 494905): 0.75 log2
Ave DE [log2] (C3A treated with steroid) (Clone ID 508943): −1.26 log2
Ave DE [log2] (C3A treated with steroid) (Clone ID 869702): 0.55 log2
Ave DE [log2] (C3A treated with steroid) (Clone ID 1259841): 0.84 log2
Ave DE [log2] (C3A treated with steroid) (Clone ID 1275616): 0.97 log2
Ave DE [log2] (C3A treated with steroid) (Clone ID 1323616): 0.89 log2
Ave DE [log2] (C3A treated with steroid) (Clone ID 1500810): −0.70 log2
Ave DE [log2] (C3A treated with steroid) (Clone ID 1501410): −1.16 log2
Ave DE [log2] (C3A treated with steroid) (Clone ID 1573840): 0.86 log2
Ave DE [log2] (C3A treated with steroid) (Clone ID 1823946): −1.20 log2
Ave DE [log2] (C3A treated with steroid) (Clone ID 1857664): −0.71 log2
Ave DE [log2] (C3A treated with steroid) (Clone ID 1876829): −0.94 log2
Ave DE [log2] (C3A treated with steroid) (Clone ID 1930847): −0.67 log2
Ave DE [log2] (C3A treated with steroid) (Clone ID 1946155): 0.93 log2
Ave DE [log2] (C3A treated with steroid) (Clone ID 2025128): 0.90 log2
Ave DE [log2] (C3A treated with steroid) (Clone ID 2086783): −1.18 log2
Ave DE [log2] (C3A treated with steroid) (Clone ID 2088104): −1.20 log2
Ave DE [log2] (C3A treated with steroid) (Clone ID 2095329): −1.37 log2
Ave DE [log2] (C3A treated with steroid) (Clone ID 2173002): 0.75 log2
Ave DE [log2] (C3A treated with steroid) (Clone ID 2253102): −1.20 log2
Ave DE [log2] (C3A treated with steroid) (Clone ID 2269058): −1.15 log2
Ave DE [log2] (C3A treated with steroid) (Clone ID 2285181): −1.27 log2
Ave DE [log2] (C3A treated with steroid) (Clone ID 2285521): −1.22 log2
Ave DE [log2] (C3A treated with steroid) (Clone ID 2287703): −1.24 log2
Ave DE [log2] (C3A treated with steroid) (Clone ID 2287724): −1.16 log2
Ave DE [log2] (C3A treated with steroid) (Clone ID 2293496): −0.82 log2
Ave DE [log2] (C3A treated with steroid) (Clone ID 2294968): −0.94 log2
Ave DE [log2] (C3A treated with steroid) (Clone ID 2655279): −1.21 log2
Ave DE [log2] (C3A treated with steroid) (Clone ID 2698777): −1.48 log2
Ave DE [log2] (C3A treated with steroid) (Clone ID 2703282): −0.86 log2
Ave DE [log2] (C3A treated with steroid) (Clone ID 2947188): −0.98 log2
Ave DE [log2] (C3A treated with steroid) (Clone ID 3057272): 0.98 log2
Ave DE [log2] (C3A treated with steroid) (Clone ID 3115505): −1.10 log2
Ave DE [log2] (C3A treated with steroid) (Clone ID 3139631): −0.82 log2
Ave DE [log2] (C3A treated with steroid) (Clone ID 3973887): −1.06 log2
Ave DE [log2] (C3A treated with steroid) (Clone ID 4089291): −0.77 log2
Ave DE [log2] (C3A treated with steroid) (Clone ID 4284270): −0.88 log2
Ave DE [log2] (C3A treated with steroid) (Clone ID 4377432): 0.87 log2
Ave DE [log2] (C3A treated with steroid) (Clone ID 4884214): −0.77 log2
Ave DE [log2] (C3A treated with steroid) (Clone ID 5091002): −1.42 log2
Ave DE [log2] (C3A treated with steroid) (Clone ID 5206821): 0.17 log2
Ave DE [log2] (C3A treated with steroid) (Clone ID 5426158): −1.03 log2

C[C@@H]1C[C@H]2[C@@H]3CCC4=CC(=O)C=C[C@]4(C)[C@@]3(F)[C@@H](O)C[C@]2(C)[C@@]1(O)C(=O)CO [dexomethasone]
Ave DE [log2] (C3A treated with steroid) (Clone ID 2947188): −0.98 log2
